Data as given in US10071957B2, “N-substituted benzamides and methods of use thereof” (GENENTECH, INC., priority 2012, dated 2018).

Target: hNaV1.7 (Homo sapiens (Human), UniProt Q15858)
Test: Competitive binding of tritiated compound to membranes from cells expressing hNav1.7 and the β1 subunit
Details: 100 pM [3H]compound, 18 h, room temperature; read-out: NaV1.7 395 Membrane Binding IC50
Experimental: Tritiated compound binding to membranes isolated from cells that heterologously express hNav1.7 and the β1 subunit
Preparation of membranes containing recombinantly expressed sodium channels: Frozen recombinant cell pellets were thawed on ice and diluted to 4 times the cell pellet weight with ice cold 50 mM Tris HCl, pH 7.4 buffer. The cell suspensions were homogenized on ice using a motorized glass dounce homogeniser. Homogenates were further diluted 8.4 times with ice cold 50 mM Tris HCl, pH 7.4 buffer and then centrifuged at 200×g at 4° C. for 15 min. The supernatants were collected and centrifuged at 10000×g at 4° C. for 50 min. The pellets were then re-suspended in 100 mM NaCl, 20 mM Tris HCl, pH 7.4 buffer containing 1% v/v protease inhibitors (Calbiochem) and re-homogenized on ice. The homogenized membranes were then processed through a syringe equipped with a 26 gauge needle. Protein concentrations were determined by Bradford Assay and the membranes were stored at −80° C.
Radioligand Binding Studies: Saturation experiments. A representative compound of formula (I) was tritiated. Three tritiums were incorporated in place of methyl hydrogens to generate [^3H]compound. Binding of this radioligand was performed in 5 mL borosilicate glass test tubes at room temperature. Binding was initiated by adding membranes to increasing concentrations of [^3H]compound in 100 mM NaCl, 20 mM Tris HCl, pH 7.4 buffer containing 0.01% w/v bovine serum albumin (BSA) for 18 h. Non-specific binding was determined in the presence of 1 μM unlabelled compound. After 18 h, the reactants were filtered through GF/C glass fiber filters presoaked in 0.5% w/v polyethylene imine. Filters were washed with 15 mL ice cold 100 mM NaCl, 20 mM Tris HCl, pH 7.4 buffer containing 0.25% BSA to separate bound from free ligand. [^3H]compound bound to filters was quantified by liquid scintillation counting.
Competitive binding experiments. Binding reactions were performed in 96-well polypropylene plates at room temperature for 18 h. In 360 μL, membranes were incubated with 100 pM [^3H]compound and increasing concentrations of Test Compound. Non-specific binding was defined in the presence of 1 μM unlabelled compound. Reactions were transferred and filtered through 96-well glass fiber/C filter plates presoaked with 0.5% polyethylene imine. The filtered reactions were washed 5 times with 200 μL ice cold buffer containing 0.25% BSA. Bound radioactivity was determined by liquid scintillation counting.
Data Analysis: For saturation experiments, non-specific binding was subtracted from total binding to provide specific binding and these values were recalculated in terms of pmol ligand bound per mg protein. Saturation curves were constructed and dissociation constants were calculated using the single site ligand binding model: Beq=(Bmax*X)/(X+Kd), where Beq is the amount of ligand bound at equilibrium, Bmax is the maximum receptor density, Kd is the dissociation constant for the ligand, and X is the free ligand concentration. For competition studies percent inhibition was determined and IC50 values were calculated using a 4 parameter logistic model (% inhibition=(A+((B−A)/(1+((x/C)^D)))) using XLfit, where A and B are the maximal and minimum inhibition respectively, C is the IC50 concentration and D is the (Hill) slope.

Sequence of hNaV1.7 (Q15858 whole entry, looked up): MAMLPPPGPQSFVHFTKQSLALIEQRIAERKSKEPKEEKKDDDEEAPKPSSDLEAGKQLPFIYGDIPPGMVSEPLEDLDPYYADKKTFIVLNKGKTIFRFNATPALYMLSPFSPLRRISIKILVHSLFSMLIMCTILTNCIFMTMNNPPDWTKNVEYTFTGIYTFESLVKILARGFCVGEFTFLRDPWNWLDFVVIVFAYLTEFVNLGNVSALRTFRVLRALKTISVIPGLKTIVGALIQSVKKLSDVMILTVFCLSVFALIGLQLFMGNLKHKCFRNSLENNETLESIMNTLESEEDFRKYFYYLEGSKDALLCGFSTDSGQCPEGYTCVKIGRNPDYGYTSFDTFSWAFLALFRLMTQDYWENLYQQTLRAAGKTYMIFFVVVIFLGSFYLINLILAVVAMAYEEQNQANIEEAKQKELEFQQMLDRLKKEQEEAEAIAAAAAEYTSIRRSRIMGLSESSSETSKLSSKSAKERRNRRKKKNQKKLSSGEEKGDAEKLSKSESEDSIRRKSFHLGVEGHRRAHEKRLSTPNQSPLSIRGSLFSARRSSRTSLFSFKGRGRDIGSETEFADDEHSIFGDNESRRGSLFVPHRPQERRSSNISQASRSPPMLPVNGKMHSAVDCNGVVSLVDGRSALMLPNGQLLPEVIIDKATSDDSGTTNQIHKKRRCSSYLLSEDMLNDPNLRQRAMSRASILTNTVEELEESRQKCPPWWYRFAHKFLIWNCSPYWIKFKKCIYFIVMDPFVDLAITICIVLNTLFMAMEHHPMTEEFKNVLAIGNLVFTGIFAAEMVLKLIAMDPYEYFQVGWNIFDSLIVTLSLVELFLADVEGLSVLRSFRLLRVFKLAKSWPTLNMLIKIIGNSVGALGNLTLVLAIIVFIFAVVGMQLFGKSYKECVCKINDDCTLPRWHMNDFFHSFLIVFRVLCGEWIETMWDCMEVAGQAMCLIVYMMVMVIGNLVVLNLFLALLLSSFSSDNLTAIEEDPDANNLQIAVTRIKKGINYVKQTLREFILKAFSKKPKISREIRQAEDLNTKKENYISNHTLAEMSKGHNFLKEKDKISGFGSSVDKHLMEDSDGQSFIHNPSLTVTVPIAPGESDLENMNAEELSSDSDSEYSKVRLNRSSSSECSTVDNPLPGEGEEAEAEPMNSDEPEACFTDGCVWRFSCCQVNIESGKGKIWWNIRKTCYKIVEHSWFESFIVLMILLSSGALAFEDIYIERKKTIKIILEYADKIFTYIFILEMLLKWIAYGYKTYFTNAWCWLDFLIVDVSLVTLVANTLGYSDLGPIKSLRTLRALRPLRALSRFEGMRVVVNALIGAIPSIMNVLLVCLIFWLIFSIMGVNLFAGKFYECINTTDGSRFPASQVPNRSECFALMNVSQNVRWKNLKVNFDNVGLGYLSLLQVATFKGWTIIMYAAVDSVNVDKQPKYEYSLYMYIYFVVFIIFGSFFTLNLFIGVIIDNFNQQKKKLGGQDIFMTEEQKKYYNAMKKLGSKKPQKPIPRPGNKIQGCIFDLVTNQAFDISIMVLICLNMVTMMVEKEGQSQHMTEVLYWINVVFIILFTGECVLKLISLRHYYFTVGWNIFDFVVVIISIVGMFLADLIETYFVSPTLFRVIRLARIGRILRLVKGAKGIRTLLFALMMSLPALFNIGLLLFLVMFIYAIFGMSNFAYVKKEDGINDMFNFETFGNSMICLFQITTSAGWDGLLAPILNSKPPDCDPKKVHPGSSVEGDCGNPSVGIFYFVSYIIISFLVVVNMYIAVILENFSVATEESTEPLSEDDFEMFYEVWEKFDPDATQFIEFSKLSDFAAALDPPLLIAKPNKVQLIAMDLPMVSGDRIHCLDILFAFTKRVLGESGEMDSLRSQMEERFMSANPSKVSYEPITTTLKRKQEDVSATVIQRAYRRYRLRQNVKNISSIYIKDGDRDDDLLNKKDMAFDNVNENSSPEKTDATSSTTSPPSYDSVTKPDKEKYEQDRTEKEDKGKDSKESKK
Sequence of hNaV1.7 (Q07699 whole entry partner, looked up): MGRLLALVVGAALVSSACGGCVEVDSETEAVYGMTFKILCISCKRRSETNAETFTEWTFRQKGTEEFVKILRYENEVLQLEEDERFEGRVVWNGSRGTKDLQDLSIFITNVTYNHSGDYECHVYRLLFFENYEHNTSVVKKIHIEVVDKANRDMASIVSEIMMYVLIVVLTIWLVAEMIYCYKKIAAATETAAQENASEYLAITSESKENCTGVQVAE

SMILES | IC50 [nM]
CC(C)COc1ncc(Oc2cc(F)c(C(=O)NS(N)(=O)=O)cc2C#N)cc1Cl [Preparation 75, 4-((5-chloro-6-iso-butoxypyridin-3-yl)oxy)-5-cyano-2-fluoro-N-sulfamoyl-benzamide] | 290
CC(C)COc1ncc(Oc2cc(F)c(C(=O)NS(=O)(=O)N3CCNCC3)cc2Cl)cc1Cl [Preparation 42, 5-chloro-4-((5-chloro-6-isobutoxypyridin-3-yl)oxy)-2-fluoro-N-(piperazin-1-ylsulfonyl)benzamide] | 856
CC(C)COc1ncc(Oc2cc(F)c(C(=O)NS(=O)(=O)NCc3cccnc3)cc2Cl)cc1Cl [Preparation 22, 5-chloro-4-((5-chloro-6-isobutoxypyridin-3-yl)oxy)-2-fluoro-N-(N-(pyridin-3-ylmethyl)sulfamoyl) benzamide 2,2,2-trifluoroacetate] | 3580
CN(C)S(=O)(=O)NC(=O)c1cc(Cl)c(Oc2ccc3ccccc3c2)cc1F [Preparation 47, 5-chloro-N-(N,N-dimethylsulfamoyl)-2-fluoro-4-(naphthalen-2-yloxy)benzamide] | 4070
CN(C)S(=O)(=O)NC(=O)c1cc(Cl)c(Oc2ccc3ccncc3c2)cc1F [Preparation 73, 5-chloro-N-(N,N-dimethylsulfamoyl)-2-fluoro-4-(isoquinolin-7-yloxy)benzamide] | 20000
CN(C)S(=O)(=O)NC(=O)c1cc(Cl)c(Oc2cccc3ccccc23)cc1F [Preparation 52, 5-chloro-N-(N,N-dimethylsulfamoyl)-2-fluoro-4-(naphthalen-1-yloxy)benzamide] | 5200
CC(C)COc1ncc(Oc2cc(F)c(C(=O)NS(=O)(=O)N(C)C)cc2Cl)cc1C(F)(F)F [Preparation 40, 5-chloro-N-(N,N-dimethylsulfamoyl)-2-fluoro-4-((6-iso-butoxy-5-(trifluoro-methyl)pyridin-3-yl)oxy)benzamide] | 71
NS(=O)(=O)NC(=O)c1cc(Cl)c(Oc2ccc(F)c(F)c2)cc1F [Preparation 50, 5-chloro-4-(3,4-difluorophenoxy)-2-fluoro-N-sulfamoylbenzamide] | 656
CC(C)COc1ncc(Oc2cc(F)c(C(=O)NS(=O)(=O)N3CCN(C(=O)OC(C)(C)C)CC3)cc2Cl)cc1Cl [Preparation 41, tert-butyl 4-(N-(5-chloro-4-((5-chloro-6-isobutoxy-pyridin-3-yl)oxy)-2-fluorobenzoyl)sulfamoyl)piperazine-1-carboxylate] | 3800
CC(C)COc1ncc(Oc2cc(F)c(C(=O)NS(=O)(=O)N3CCC3)cc2Cl)cc1Cl [Preparation 46, N-(azetidin-1-ylsulfonyl)-5-chloro-4-((5-chloro-6-iso-butoxypyridin-3-yl)oxy)-2-fluorobenzamide] | 9.2
CC(C)COc1ncc(Oc2cc(F)c(C(=O)NS(=O)(=O)N(C)Cc3ccccc3)cc2Cl)cc1Cl [Preparation 19, N-(N-benzyl-N-methylsulfamoyl)-5-chloro-4-((5-chloro-6-isobutoxypyridin-3-yl)oxy)-2-fluoro-benzamide] | 4440
CN(C)S(=O)(=O)NC(=O)c1cc(Cl)c(Oc2cccc3[nH]ccc23)cc1F [Preparation 55, 4-((1H-indol-4-yl)oxy)-5-chloro-N-(N,N-dimethyl-sulfamoyl)-2-fluoro-benzamide] | 20000
O=C(NS(=O)(=O)c1cccnc1)c1cc(Cl)c(Oc2cnc(OCC(F)(F)C(F)F)c(Cl)c2)cc1F [Preparation 69, 5-chloro-4-((5-chloro-6-(2,2,3,3-tetrafluoro-propoxy)pyridin-3-yl)oxy)-2-fluoro-N-(pyridin-3-ylsulfonyl) benzamide] | 950
CN(C)S(=O)(=O)NC(=O)c1cc(Cl)c(Oc2ccc(-c3nccs3)cc2)cc1F [Preparation 44, 5-chloro-N-(N,N-dimethylsulfamoyl)-2-fluoro-4-(4-(thiazol-2-yl)phenoxy) benzamide] | 869
CN(C)S(=O)(=O)NC(=O)c1cc(Cl)c(COc2cnc(OCC(F)(F)C(F)F)c(Cl)c2)cc1F [Preparation 39, 5-chloro-4-(((5-chloro-6-(2,2,3,3-tetrafluoro-propoxy)pyridin-3-yl)oxy)methyl)-N-(N,N-dimethyl-sulfamoyl)-2-fluoro-benzamide] | 216
NS(=O)(=O)NC(=O)c1cc(Cl)c(COc2cnc(OCC(F)(F)C(F)F)c(Cl)c2)cc1F [Preparation 36, 5-chloro-4-(((5-chloro-6-(2,2,3,3-tetrafluoropropoxy)pyridin-3-yl)oxy)methyl)-2-fluoro-N-sulfamoylbenzamide] | 460
CN(C)S(=O)(=O)NC(=O)c1cc(Cl)c(Oc2cccc3ncccc23)cc1F [Preparation 71, 5-chloro-N-(N,N-dimethylsulfamoyl)-2-fluoro-4-(quinolin-5-yloxy)benzamide] | 20000

Now from value to compound:

IC50 [nM] | SMILES
6 | CNS(=O)(=O)NC(=O)c1cc(C2CC2)c(Oc2cnc(OC(C)C)c(Cl)c2)cc1F [Preparation 90]
0.3 | O=C(NS(=O)(=O)N1CCC1)c1cc(C2CC2)c(COc2cc(Cl)cc(Cl)c2)cc1F [Preparation 96]
171 | NS(=O)(=O)NC(=O)c1cc(Cl)c(Oc2cnc(OCC(F)(F)C(F)F)c(Cl)c2)cc1F [Preparation 37, 5-chloro-4-((5-chloro-6-(2,2,3,3-tetrafluoro-propoxy)pyridin-3-yl)oxy)-2-fluoro-N-sulfamoylbenzamide]
9 | O=C(NS(=O)(=O)N1CCC1)c1cc(C2CC2)c(COc2ccc(Cl)c(Cl)c2)cc1F [Preparation 98]
1300 | CC(C)Oc1ncc(Oc2cc(F)c(C(=O)NS(=O)(=O)N3CCC3)cc2C2(O)COC2)cc1Cl [Preparation 89]
9 | O=C(NS(=O)(=O)N1CCC1)c1cc(C2CC2)c(Oc2cnc(OCC(F)(F)F)c(Cl)c2)cc1F [Preparation 94]
44 | CC(C)Oc1ncc(Oc2cc(F)c(C(=O)NS(=O)(=O)N3CCC3)cc2C2(F)COC2)cc1Cl [Preparation 88]
665 | CN(C)S(=O)(=O)NC(=O)c1cc(Cl)c(Oc2cnc(Cl)c(Cl)c2)cc1F [Preparation 35, 5-chloro-4-((5,6-dichloropyridin-3-yl)oxy)-N-(N,N-dimethylsulfamoyl)-2-fluorobenzamide]
140 | CN(C)S(=O)(=O)NC(=O)c1cc(Cl)c(Oc2cnc(N3CCCCC3)c(Cl)c2)cc1F [Preparation 63, 5-chloro-4-((5-chloro-6-(piperidin-1-yl)pyridin-3-yl)oxy)-N-(N,N-dimethyl-sulfamoyl)-2-fluoro-benzamide]
628 | CNS(=O)(=O)NC(=O)c1cc(Cl)c(Oc2cnc(Cl)c(Cl)c2)cc1F [Preparation 38, 5-chloro-4-((5,6-dichloropyridin-3-yl)oxy)-2-fluoro-N-(N-methyl-sulfamoyl)benzamide]
